Columns and labels:
[1] = biological target: T1, ENPP1 (Homo sapiens, UniProt P22413); assay: Measurement of 2′3′-cGAMP hydrolysis by ENPP1 (AMP-Glo); assay type: biochemical; conditions: 2′3′-cGAMP substrate 100 μM, KM 32 μM; Ki from IC50 by Cheng-Prusoff
T1 sequence (P22413 1-925): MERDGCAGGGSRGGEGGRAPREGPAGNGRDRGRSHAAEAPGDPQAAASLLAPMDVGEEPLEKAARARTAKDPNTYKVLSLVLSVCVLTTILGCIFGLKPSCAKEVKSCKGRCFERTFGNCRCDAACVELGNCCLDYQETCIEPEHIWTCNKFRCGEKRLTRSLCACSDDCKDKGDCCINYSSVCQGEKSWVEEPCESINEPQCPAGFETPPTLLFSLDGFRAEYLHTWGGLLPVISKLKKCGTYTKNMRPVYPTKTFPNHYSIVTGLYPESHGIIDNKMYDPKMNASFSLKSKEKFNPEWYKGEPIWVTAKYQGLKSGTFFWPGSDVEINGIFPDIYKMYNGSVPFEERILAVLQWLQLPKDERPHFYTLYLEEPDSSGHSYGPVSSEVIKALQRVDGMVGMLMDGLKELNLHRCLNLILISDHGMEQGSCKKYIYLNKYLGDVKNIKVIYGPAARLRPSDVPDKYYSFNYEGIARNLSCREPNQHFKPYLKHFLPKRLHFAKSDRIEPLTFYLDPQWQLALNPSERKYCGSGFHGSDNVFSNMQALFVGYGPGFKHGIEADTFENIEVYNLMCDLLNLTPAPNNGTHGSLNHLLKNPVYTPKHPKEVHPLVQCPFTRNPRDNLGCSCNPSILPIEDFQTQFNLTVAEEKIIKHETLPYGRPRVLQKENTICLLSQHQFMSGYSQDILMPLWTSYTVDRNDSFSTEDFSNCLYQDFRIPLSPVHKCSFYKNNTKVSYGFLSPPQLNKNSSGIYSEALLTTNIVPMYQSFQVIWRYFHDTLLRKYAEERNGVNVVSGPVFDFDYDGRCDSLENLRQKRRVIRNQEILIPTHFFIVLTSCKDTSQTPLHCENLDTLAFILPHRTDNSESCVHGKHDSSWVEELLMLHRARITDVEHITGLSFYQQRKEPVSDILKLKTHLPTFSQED
Procedure: Measurement of 2′3′-cGAMP hydrolysis by ENPP1
The AMP-Glo assay kit from Promega (catalog number V5012) was used for measurement of 5′-AMP production.
First, an ENPP1 and test compound incubation was set up in assay buffer (50 mM Tris -HCl, pH8.8, 250 mM NaCl, 0.1 mg/ml BSA) with following conditions: ENPP1 concentration: 1.25 nM; test compound concentration ranging from 137 pM to 100 nM. The incubation was carried out at 25° C. for 10 min.
Second, after the 10-minute incubation of ENPP1 and test compound, prepare on a separate plate, 15 μl of the substrate 2′3′-cGAMP at 200 μM in assay buffer. Then, 15 μl of the ENPP1/Compound incubation was transferred to the 200 μM 2′3′-cGAMP solution to initiate the reaction. The 30 μl mixture was incubated for 30 min at 25° C. In all these assays a DMSO control without compound was included which gave the maximum 5′-AMP production (MAX RLU). After 30 min the reaction was stopped by heating at 90° C. for 3 min.
Third, the Promega AMP-Glo kit was used to detect 5′-AMP production as a measurement of ENPP1 enzyme activity. Briefly, 10 μl of the above mentioned 30 μl total reaction per sample was transferred into 384 well white solid assay plate for measurement of 5′-AMP production. For each well, 10 μl of AMP-Glo Reagent I was added, mixed well, and incubated for 1 hour at 25° C. At this time AMP detection solution was prepared and 20 μl was added per well, and the resulting solution was incubated for 1 hr at 25° C. Duplicates were run for each inhibitor concentration. Luminescence signal (relative luminescence units, RLU) was recorded using a PerkinElmer 2300 Enspire multimode plate reader.
The % inhibition was calculated using the following equation: % inhibition=(MAX RLU-sample RLU)/MAX RLU X 100%.
IC50 values of compounds were determined by loading compound concentration data and percent inhibition values into GraphPad Prism (GraphPad Prism version 7.0 for
Windows, GraphPad Software, La Jolla California USA, www.graphpad.com) and conducted a Sigmoidal variable slope nonlinear regression fitting.
Ki values for each compound were calculated from the observed IC50 from GraphPad analysis using the Cheng-Prusoff equation: Ki=IC50/(1+ (S)/KM). (S) here is 100μ M and KM is 32 μm.

[2] = biological target: T1, ENPP1; assay: Measurement of pNP-TMP hydrolysis by ENPP1; assay type: biochemical; conditions: pNP-TMP substrate 500 μM, Km 232 μM; Ki from IC50 by Cheng-Prusoff
Procedure: Measurement of pNP-TMP hydrolysis by ENPP1
p-Nitrophenyl thymidine 5′-monophosphate (pNP-TMP) is a synthesized substrate for ENPP1. The ENPP1 enzyme activity assay with pNP-TMP substrate was conducted as follows:
First, in a 60 μl reaction, 7.5 ng purified ENPP1 was mixed with 1.2 μl compounds of Formula (I) (test compound) ranging from 13.7 nM to 10 μM. Incubation of ENPP1 with compounds was set at 25° C. for 10 min. Reactions with DMSO only (with ENPP1 but no compound) gave the fastest reaction (MAX Activity). For each compound dilution, wells with assay buffer (50 mM Tris -HCl, pH8.8, 250 mM NaCl, 0.1 mg/ml BSA) and test compounds but no ENPP1 were included as controls for the subtraction of test compound derived absorbance at 405 nm.
Second, after 10 minutes incubation of ENPP1 and test compound, the assay was initiated by transferring 50 μl of the above mentioned ENPP1/test compound reaction into 50 μl of 1 mM pNP-TMP in assay buffer results in a 100 μl total reaction in non-binding surface clear bottom 96 well plates. Absorbance at 405 nm was recorded immediately in kinetic mode by PerkinElmer 2300 Enspire multimode plate reader.
For each inhibitor, the specific ENPP1 activity was calculated using the following equation: ENPP1 activity (pmol/min/μg)=Adjusted Vmax (OD405 nm/min) X conversion factor (pmol/OD405 nm)/amount of enzyme (μg)
Adjusted Vmax=V0X (Km+(S))/(S). In this assay, Km=232 μM, (S)=500 μM. Adjusted Vmax=1.464 X V0.
V0=(OD405 nm with ENPP1-OD405 nm ENPP1 blank)/minutes. OD405 nm was plotted, with blank subtracted, against time (minutes), the initial linear rate is V0.
The conversion factor (pmol/OD405 nm), was determined by plotting the amount of standard, 4-Nitrophenol (Sigma -Aldrich, Catalog #241326), against absorbance at 405 nm. The slope is the conversion factor. The percent ENPP1 activity for each sample was calculated using the following equation: […]
To determine the IC50 for each compound, compound concentration values and percent enzyme activity values were inserted into GraphPad Prism (GraphPad Prism version 9.0 for Windows, GraphPad Software, La Jolla California USA, www.graphpad.com), and Prism's Transform analysis was used to convert the x-axis values (compound concentration) to logarithms. A sigmoidal variable slope nonlinear regression analysis was performed using the following equation: Y=Bottom+ (Top-Bottom)/(1+10^((Log IC50″X) *HillSlope)).
Ki values for each compound were calculated from the observed IC50 from GraphPad analysis using the Cheng-Prusoff equation: Ki=IC50/(1+(S)/KM). (S) here is 500 μM and KM is determined to be 232 μM.

Row | SMILES | Ki [1] [nM] | Ki [2] [nM]
1 | N=[S@@](=O)(c1cccc(COc2ccnc3c(OCF)nccc23)c1)C1CC1 (single isomer, unassigned) [Example 43] | < 1 | < 10
2 | C[S@](=N)(=O)CC1(O)CCN(c2ccnc3c(OCF)nccc23)CC1 (single isomer, unassigned) [Example 49] | < 1 | < 10
3 | COc1nccc2c(OCc3cc(F)cc([S@@](=N)(=O)C4CC4)c3)ccnc12 (single isomer, unassigned) [Example 67] | < 1 | < 10
4 | COc1nccc2c(OCc3cc(F)cc([S@@](C)(=N)=O)c3)ccnc12 (single isomer, unassigned) [Example 71] | < 1 | < 10
5 | C[S@](=N)(=O)c1cccc(COc2ccnc3c(OCF)nccc23)c1 (single isomer, unassigned) [Example 79] | < 1 | < 10
6 | CS(=N)(=O)c1cccc(COc2ccnc3cnccc23)c1 (centres unmarked) [Example 9] | 1 to 5 | < 10
7 | COc1nccc2c(N3CCC(O)(CS(C)(=N)=O)CC3)ccnc12 (centres unmarked) [Example 25] | < 1 | 
8 | CS(=N)(=O)c1cc(F)cc(COc2ccnc3c(OCF)nccc23)c1 (centres unmarked) [Example 72, (3-fluoro-5-(((8-(fluoromethoxy)-1,7-naphthyridin-4-yl)oxy)methyl)phenyl)-(imino)(methyl)-lambda6-sulfanone] | < 1 | 
9 | COc1nccc2c(OCc3cccc([S@@](=N)(=O)C(C)(C)C)c3)ccnc12 [Example 74, (S)-tert-butyl(imino) (3-(((8-methoxy-1,7-naphthyridin-4-yl)oxy)methyl)phenyl)-lambda6-sulfanone] |  | < 10
10 | COc1nccc2c(OCc3cccc([S@@](C)(=N)=O)c3)ccnc12 [Example 75, (S)-imino (3-(((8-methoxy-1,7-naphthyridin-4-yl)oxy)methyl)phenyl)(methyl)-lambda6-sulfanone] |  | < 10
11 | COc1nccc2c(OCc3cccc([S@](=N)(=O)C(C)(C)C)c3)ccnc12 [Example 76, (R)-tert-butyl(imino) (3-(((8-methoxy-1,7-naphthyridin-4-yl)oxy)methyl)phenyl)-lambda6-sulfanone] |  | 10 to 100
12 | COc1nccc2c(OCc3cccc([S@@](=N)(=O)C(C)C)c3)ccnc12 [Example 84, (S)-imino(isopropyl)(3-(((8-methoxy-1,7-naphthyridin-4-yl)oxy)methyl)phenyl)-lambda6-sulfanone] |  | < 10

The remaining lines, values ahead:

Row | Ki [1] [nM] | Ki [2] [nM] | SMILES
13 | < 1 | < 10 | N=S(=O)(c1cccc(COc2ccnc3c(OCF)nccc23)c1)C1CC1 (racemic) [Example 41, cyclopropyl(3-(((8-(fluoromethoxy)-1,7-naphthyridin-4-yl)oxy)methyl)phenyl)-(imino)-lambda6-sulfanone]
14 | < 1 |  | CS(=N)(=O)CC1(O)CCN(c2ccnc3c(OCF)nccc23)CC1 (racemic) [Example 47, ((1-(8-(fluoromethoxy)-1,7-naphthyridin-4-yl)-4-hydroxypiperidin-4-yl)methyl) (imino)(methyl)-lambda6-sulfanone]
15 | < 1 |  | COc1nccc2c(OCc3cc(F)cc(S(=N)(=O)C4CC4)c3)ccnc12 (racemic) [Example 66, cyclopropyl(3-fluoro-5-(((8-methoxy-1,7-naphthyridin-4-yl)oxy)methyl)-phenyl) (imino)-lambda6-sulfanone]
16 | < 1 | < 10 | CS(=N)(=O)c1cccc(COc2ccnc3c(OCF)nccc23)c1 (racemic) [Example 77, (3-(((8-(fluoromethoxy)-1,7-naphthyridin-4-yl)oxy)methyl)phenyl) (imino)(methyl)-lambda6-sulfanone]
17 | < 1 | < 10 | COc1nccc2c(N3CC4(CC(CS(C)(=N)=O)C4)C3)ncnc12 (single isomer, unassigned) [Example 2a, imino ((2-(8-methoxypyrido[3,4-d]pyrimidin-4-yl)-2-azaspiro[3.3]heptan-6-yl)methyl)(methyl)-lambda6-sulfanone]
